Measured values from patent publication US7157408B2, “Quinoline fungicides” (Valent BioSciences Corporation, priority 2004, dated 2007).

Key:
Botrytis cinerea [1] = test: Contact evaluation (microtiter plate); format: cell-based
Method: (§1) Compound solution: Contact evaluations were conducted to determine the anti-fungal activity of each compound against Botrytis cinerea, Sclerotinia sclerotiorum, Pythium aphanidermatum, Rhizoctonia solani, Cercospora arachidicola, Mycosphaerella fjiensis, and Monilinia laxa. Five milligrams of each compound were dissolved in 0.5 milliliter of DMSO for a compound stock solution of 1.0% w/v. Compound stock solutions were serial diluted with DMSO to 20, 10, and 2 ppm final well concentration. Fungi preparation: Botrytis cinerea spores were taken from 6-week-old cultures grown at 22C on full strength potato dextrous agar (PDA) plates. Sclerotinia sclerotiorum, Pythium aphanidermatum, Rhizoctonia solani, and Monilinia laxa mycelia were taken from 4- to 10-day-old shake flask cultures grown at room temperature on full strength potato dextrous broth (PDB). Cercospora arachidicola mycelia were taken from 10- to 14-day-old shake flask cultures grown at room temperature on a full strength PDB amended with peanut oil. Mycosphaerella fijiensis mycelia were taken from 10- to 14-day-old shake flask cultures grown at room temperature on V8 juice broth. Sclerotinia sclerotiorum, Pythium aphanidermatum, Rhizoctonia solani, Cercospora arachidicola, and Mycosphaerella fijiensis mycelia (0.4 g mycelia) were blended for 45 seconds in 20 mL sterile de-ionized water. Monilinia laxa mycelia (1 g mycelia) was blended for 45 seconds in 30 mL of sterile de-ionized water. Botrytis cinerea spores were diluted with quarter strength PDB to 1×10^5 spores/mL final well concentration. All mycelia were diluted in water (1:5 mycelia:water) before distributing into the wells. Microtiter plate preparation: Compound solution (10 :L), quarter strength PDB (900 :L) and fungi preparation (100 :L) were sequentially distributed into 48-well microtiter plates (n=3 replications/compound/rate). A blank consisted of quarter strength PDB and fungi preparation. Commercial fungicide controls (100 ppm diluted with water) consisted of Scala for Botrytis cinerea, Dithane F-45 for Mycosphaerella fijiensis, and Benlate for Sclerotinia sclerotiorum, Pythium aphanidermatum, Rhizoctonia solani, Cercospora arachidicola, and Monilinia laxa. Plates were shaken in a circular rotator at room temperature for 20 minutes, then incubated at 25C for 24 to 72 hours, depending on the pathogen. Fungal control ratings: Fungal growth in wells containing the compounds were compared to the positive control and fungal inhibition was rated as full, partial, or none. Final readings were the average of the three wells (Table 1).

Cercospora arachidicola = test: Contact evaluation (microtiter plate); format: cell-based
Method: as §1

Monilinia laxa = test: Contact evaluation (microtiter plate); format: cell-based
Method: as §1

Mycosphaerella fijiensis = test: Contact evaluation (microtiter plate); format: cell-based
Method: as §1

Pythium aphanidermatum = test: Contact evaluation (microtiter plate); format: cell-based
Method: as §1

Rhizoctonia solani = test: Contact evaluation (microtiter plate); format: cell-based; details: Rhizoctinia solani
Method: as §1

Sclerotinia sclerotiorum = test: Contact evaluation (microtiter plate); format: cell-based; details: Sclerotinia sclerotionum
Method: as §1

Botrytis cinerea [2] = test: Detached bean leaf bioassay, fungal control; format: in vivo; details: 200 ppm, three days after inoculation, 100 minus percent necrotic area
Method: Compound solution: Compound solutions were prepared by diluting compound stock solutions (1.0% w/v compound in DMSO) to 200 ppm with 0.01% w/v Triton X-100. Spore solution preparation: Botrytis cinerea spores were taken from 6-week-old cultures grown at 22C on full strength potato dextrous agar (PDA) plates and harvested in 1:16 frozen orange juice concentrate:water. Botrytis cinerea spore solutions were prepared by diluting spore cultures to 5×10^4 spores/mL with 1:16 frozen orange juice concentrate:water. Plant material: Middle trifoliate leaves of greenhouse grown Phaseolus vulgaris (Bush bean cv. Blue Lake 274) were excised and placed on a plastic grid above a tray containing moist towels. Treatment method: One half of the adaxial surface of the leaf was treated with the compound solution (100 :L) using a 3 cm Bacti Cell Spreader. A blank consisted of 0.01% w/v Triton X-100. A commercial fungicide control (200 ppm diluted with water) consisted of Scala. […] Fungal control rating: Three days after inoculation with Botrytis, the percent necrotic area under the inoculation droplet was determined. Since the areas under the blank (0.01% w/v Triton X-100) were 100% infected, fungal control was expressed as 100 minus the percent necrotic area, and thus 0% infected is 100% fungal control (n=3 leaves/compound, 5 inoculation droplets/leaf, Table 2).

[3] = system: Phaseolus vulgaris (Bush bean cv. Blue Lake 274) leaves; test: Detached bean leaf bioassay, phytotoxicity rating; format: in vivo; details: 200 ppm, scale 0=no, 1=slight, 2=moderate, 3=excessive phytotoxicity
Method: Compound solution: Compound solutions were prepared by diluting compound stock solutions (1.0% w/v compound in DMSO) to 200 ppm with 0.01% w/v Triton X-100. Plant material: Middle trifoliate leaves of greenhouse grown Phaseolus vulgaris (Bush bean cv. Blue Lake 274) were excised and placed on a plastic grid above a tray containing moist towels. Treatment method: One half of the adaxial surface of the leaf was treated with the compound solution (100 :L) using a 3 cm Bacti Cell Spreader. A blank consisted of 0.01% w/v Triton X-100. A commercial fungicide control (200 ppm diluted with water) consisted of Scala. After the solutions dried, the trays containing the leaves were covered and held one day in a growth chamber (22C). The adaxial surfaces of the leaves were then inoculated with 5–60 :L droplets of Botrytis cinerea spore solution. Phytotoxicity ratings: Phytotoxicity was rated as 0=no phytotoxicity, 1=slight phytotoxicity, 2=moderate phytotoxicity, or 3=excessive phytotoxicity (Table 2).

OCCc1c(Br)cc(Br)c2cccnc12 [Example 1, 5,7-dibromo-8-(2-hydroxyethyl)quinoline]
Control of fungi (full, partial, none) (Botrytis cinerea [1]; fungicide rate 2 ppm): Partial | Control of fungi (full, partial, none) (Botrytis cinerea [1]; fungicide rate 10 ppm): Full | Control of fungi (full, partial, none) (Botrytis cinerea [1]; fungicide rate 20 ppm): Full | Control of fungi (full, partial, none) (Cercospora arachidicola; fungicide rate 2 ppm): None | Control of fungi (full, partial, none) (Cercospora arachidicola; fungicide rate 10 ppm): Full | Control of fungi (full, partial, none) (Cercospora arachidicola; fungicide rate 20 ppm): Full | Control of fungi (full, partial, none) (Monilinia laxa; fungicide rate 2 ppm): Full | Control of fungi (full, partial, none) (Monilinia laxa; fungicide rate 10 ppm): Full | Control of fungi (full, partial, none) (Monilinia laxa; fungicide rate 20 ppm): Full | Control of fungi (full, partial, none) (Mycosphaerella fijiensis; fungicide rate 2 ppm): Full | Control of fungi (full, partial, none) (Mycosphaerella fijiensis; fungicide rate 10 ppm): Full | Control of fungi (full, partial, none) (Mycosphaerella fijiensis; fungicide rate 20 ppm): Full | Control of fungi (full, partial, none) (Pythium aphanidermatum; fungicide rate 2 ppm): Full | Control of fungi (full, partial, none) (Pythium aphanidermatum; fungicide rate 10 ppm): Full | Control of fungi (full, partial, none) (Pythium aphanidermatum; fungicide rate 20 ppm): Full | Control of fungi (full, partial, none) (Rhizoctonia solani; fungicide rate 2 ppm): Full | Control of fungi (full, partial, none) (Rhizoctonia solani; fungicide rate 10 ppm): Full | Control of fungi (full, partial, none) (Rhizoctonia solani; fungicide rate 20 ppm): Full | Control of fungi (full, partial, none) (Sclerotinia sclerotiorum; fungicide rate 2 ppm): Full | Control of fungi (full, partial, none) (Sclerotinia sclerotiorum; fungicide rate 10 ppm): Full | Control of fungi (full, partial, none) (Sclerotinia sclerotiorum; fungicide rate 20 ppm): Full | Botrytis cinerea control (Botrytis cinerea [2]): 100% | Phytotoxity [3]: Slight | melting point: 128 to 131 °C
